This is an account of results in patent US20250302815A1, “PROTEIN TYROSINE PHOSPHATASE TARGETING LIGANDS” (CALICO LIFE SCIENCES LLC, priority 2021, published 2025).

Structures are written as SMILES.

Experiment [1] concerns the target T1, PTPN2 (HiBIT-PTPN2 in 293T.109 cells) (Homo sapiens, UniProt P17706).
T1 construct: expressed in transfected cells; host or cells: 293T.109 (293T WT from ATCC)
T1 sequence (P17706 1-415): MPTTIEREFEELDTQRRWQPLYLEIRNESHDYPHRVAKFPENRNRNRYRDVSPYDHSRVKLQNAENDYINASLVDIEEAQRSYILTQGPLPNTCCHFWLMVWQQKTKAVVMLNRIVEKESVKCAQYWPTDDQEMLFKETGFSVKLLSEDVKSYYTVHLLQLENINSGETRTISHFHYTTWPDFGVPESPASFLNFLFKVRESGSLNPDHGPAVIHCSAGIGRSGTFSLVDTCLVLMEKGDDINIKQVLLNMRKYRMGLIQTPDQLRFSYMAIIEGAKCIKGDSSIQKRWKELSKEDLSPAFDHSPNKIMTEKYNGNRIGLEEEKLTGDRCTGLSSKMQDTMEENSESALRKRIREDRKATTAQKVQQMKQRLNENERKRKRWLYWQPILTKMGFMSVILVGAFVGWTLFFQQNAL
Kind of experiment: HiBiT Degradation 293T.109 PTPN2 (Nano-Glo HiBiT Lytic Assay). As to conditions: 24.0 hours. In kind it is cell-based. The method in brief: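 Degradation read-out: lytic HiBiT luminescence after 24 h treatment (37 °C, 5% CO2) of 5000 293T cells per well expressing HiBiT-fused PTPN2 from an N-terminal tag. Dosing was 11 points, half-log steps down from 10 μM, in duplicate; vehicle-treated and no-reagent wells served as controls.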
On the technique in general: HiBiT is a short tag that completes a luciferase, so light tracks the accessible tagged protein.

Experiment [2] addresses T2, PTPN2 (B16F10.4 cells) (Mus musculus, UniProt Q06180).
T2 construct: HiBiT; host or cells: B16F10.4
T2 sequence (Q06180 1-406): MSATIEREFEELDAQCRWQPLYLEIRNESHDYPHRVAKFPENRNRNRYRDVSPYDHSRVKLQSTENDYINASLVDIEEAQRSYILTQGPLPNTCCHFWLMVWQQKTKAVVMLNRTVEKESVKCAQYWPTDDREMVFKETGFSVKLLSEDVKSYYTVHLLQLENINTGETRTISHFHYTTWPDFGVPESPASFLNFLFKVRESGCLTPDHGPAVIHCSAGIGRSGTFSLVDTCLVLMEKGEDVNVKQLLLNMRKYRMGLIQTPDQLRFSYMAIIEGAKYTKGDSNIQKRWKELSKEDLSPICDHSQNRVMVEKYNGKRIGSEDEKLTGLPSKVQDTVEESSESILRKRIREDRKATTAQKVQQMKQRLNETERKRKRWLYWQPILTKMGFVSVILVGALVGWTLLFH
Kind of experiment: HiBiT Degradation B16F10.4 PTPN2. It is filed as cell-based. The note with it: 24.0 hours.

With `CC1(C)C[C@@H](Nc2cccc(-c3sc(C(=O)O)c(OCC(=O)O)c3Cl)c2)CCN1S(=O)(=O)Cc1cccc(NC(=O)NCCCc2cc3c4c(cccc4c2)N(C2CCC(=O)NC2=O)C3=O)c1` (stereo partly drawn) [Example 215, 3-(carboxymethoxy)-4-chloro-5-[3-[[(4S)-1-[[3-[3-[1-(2,6-dioxo-3-piperidyl)-2-oxo-benzo[cd]indol-4-yl]propylcarbamoylamino]phenyl]methylsulfonyl]-2,2-dimethyl-4-piperidyl]amino]phenyl]thiophene-2-carboxylic acid], the 50% degradation concentration (DC50) (in general, the concentration at which degradation of the target reaches its halfway point) was in the range of 50 to 200 nM in experiment [1] and 200 to 1000 nM in experiment [2].
For `CC1(C)C[C@@H](Nc2cccc(-c3sc(C(=O)O)c(OCC(=O)O)c3Cl)c2)CCN1S(=O)(=O)Cc1cccc(NC(=O)CCCCCCNC(=O)CNc2cccc3c2CN(C2CCC(=O)NC2=O)C3=O)c1` (stereo partly drawn) [Example 18, 3-(carboxymethoxy)-4-chloro-5-(3-(((4S)-1-((3-(7-(2-((2-(2,6-dioxopiperidin-3-yl)-1-oxoisoindolin-4-yl)amino)acetamido)heptanamido)benzyl)sulfonyl)-2,2-dimethylpiperidin-4-yl)amino)phenyl)thiophene-2-carboxylic acid] the same measures were 200 to 1000 nM and 200 to 1000 nM.
For `CC1(C)C[C@@H](Nc2cccc(-c3sc(C(=O)O)c(OCC(=O)O)c3Cl)c2)CCN1S(=O)(=O)Cc1cccc(NC(=O)C2CCN(C(=O)CCc3cccc4c3CN(C3CCC(=O)NC3=O)C4=O)CC2)c1` (stereo partly drawn) [Example 61, 3-(carboxymethoxy)-4-chloro-5-(3-(((4S)-1-((3-(1-(3-(2-(2,6-dioxopiperidin-3-yl)-1-oxoisoindolin-4-yl)propanoyl)piperidine-4-carboxamido)benzyl)sulfonyl)-2,2-dimethylpiperidin-4-yl)amino)phenyl)thiophene-2-carboxylic acid], the 50% degradation concentration (DC50) in experiment [1] and in experiment [2] was 200 to 1000 nM in each case.
Take `CC1(C)C[C@@H](Nc2cccc(-c3sc(C(=O)O)c(OCC(=O)O)c3Cl)c2)CCN1S(=O)(=O)Cc1cccc(NC(=O)[C@H]2CC[C@H](c3ccc4c5c(cccc53)C(=O)N4C3CCC(=O)NC3=O)CC2)c1` (stereo partly drawn) [Example 165, 3-(carboxymethoxy)-4-chloro-5-(3-(((4S)-1-((3-((1r,4S)-4-(1-(2,6-dioxopiperidin-3-yl)-2-oxo-1,2-dihydrobenzo[cd]indol-6-yl)cyclohexane-1-carboxamido)benzyl)sulfonyl)-2,2-dimethylpiperidin-4-yl)amino)phenyl)thiophene-2-carboxylic acid]: the DC50 in experiment [1] and in experiment [2] was less than 50 nM each time.
With `CC1(C)C[C@@H](Nc2cccc(-c3sc(C(=O)O)c(OCC(=O)O)c3Cl)c2)CCN1S(=O)(=O)Cc1cccc(NC(=O)NCCCc2ccc3c4c(cccc24)C(=O)N3C2CCC(=O)NC2=O)c1` (stereo partly drawn) [Example 156, 3-(carboxymethoxy)-4-chloro-5-(3-(((4S)-1-((3-(3-(3-(1-(2,6-dioxopiperidin-3-yl)-2-oxo-1,2-dihydrobenzo[cd]indol-6-yl)propyl)ureido)benzyl)sulfonyl)-2,2-dimethylpiperidin-4-yl)amino)phenyl)thiophene-2-carboxylic acid], the DC50 in experiment [1] and in experiment [2] was less than 50 nM each time.
`Cn1c(=O)n(C2CCC(=O)NC2=O)c2ccc(N3CCC(N4CCN(c5cccc(CS(=O)(=O)N6CCC(Nc7cccc(-c8sc(C(=O)O)c(OCC(=O)O)c8Cl)c7)CC6)c5)C4=O)CC3)cc21` (stereo not drawn) [Example 142, 3-(carboxymethoxy)-4-chloro-5-(3-((1-((3-(3-(1-(1-(2,6-dioxopiperidin-3-yl)-3-methyl-2-oxo-2,3-dihydro-1H-benzo[d]imidazol-5-yl)piperidin-4-yl)-2-oxoimidazolidin-1-yl)benzyl)sulfonyl)piperidin-4-yl)amino)phenyl)thiophene-2-carboxylic acid]: the 50% degradation concentration (DC50) in experiment [1] was less than 50 nM; in experiment [2], 50 to 200 nM.
For `O=C(O)COc1c(C(=O)O)sc(-c2cccc(NC3CCN(S(=O)(=O)Cc4cccc(NC(=O)C5CCN(C(=O)CNc6cccc7c6C(=O)N(C6CCC(=O)NC6=O)C7=O)CC5)c4)CC3)c2)c1Cl` (stereo not drawn) [Example 16] the same measures were 200 to 1000 nM and no less than 1000 nM.
With `CC1(C)C[C@@H](Nc2cccc(-c3sc(C(=O)O)c(OCC(=O)O)c3Cl)c2)CCN1S(=O)(=O)Cc1ccc(F)c(NC(=O)C2CN(C(=O)CNc3cccc4c3CN(C3CCC(=O)NC3=O)C4=O)C2)c1` (stereo partly drawn) [Example 109], the DC50 in experiment [1] is less than 50 nM; in experiment [2] it was 200 to 1000 nM.
In the case of `CC1(C)C[C@@H](Nc2cccc(-c3sc(C(=O)O)c(OCC(=O)O)c3Cl)c2)CCN1S(=O)(=O)Cc1cccc(NC(=O)C2CN(C(=O)COc3cccc4c3CN(C3CCC(=O)NC3=O)C4=O)C2)c1` (stereo partly drawn) [Example 74], the 50% degradation concentration (DC50) in experiment [1] is less than 50 nM; in experiment [2], no less than 1000 nM.
For `Cn1c(=O)n(C2CCC(=O)NC2=O)c2ccc(CC3CCN(C(=O)Nc4cccc(CS(=O)(=O)N5CC[C@H](Nc6cccc(-c7sc(C(=O)O)c(OCC(=O)O)c7Cl)c6)CC5(C)C)c4)CC3)cc21` (stereo partly drawn) [Example 175, 3-(carboxymethoxy)-4-chloro-5-[3-[[(4S)-1-[[3-[[4-[[1-(2,6-dioxo-3-piperidyl)-3-methyl-2-oxo-benzimidazol-5-yl]methyl]piperidine-1-carbonyl]amino]phenyl]methylsulfonyl]-2,2-dimethyl-4-piperidyl]amino]phenyl]thiophene-2-carboxylic acid] the same measures were 50 to 200 nM and less than 50 nM.
Take `Cn1c(=O)n(C2CCC(=O)NC2=O)c2ccc(N3CCC(O)(CC(=O)Nc4cccc(CS(=O)(=O)N5CC[C@H](Nc6cccc(-c7sc(C(=O)O)c(OCC(=O)O)c7Cl)c6)CC5(C)C)c4)CC3)cc21` (stereo partly drawn) [Example 183, 3-(carboxymethoxy)-4-chloro-5-[3-[[(4S)-1-[[3-[[2-[1-[1-(2,6-dioxo-3-piperidyl)-3-methyl-2-oxo-benzimidazol-5-yl]-4-hydroxy-4-piperidyl]acetyl]amino]phenyl]methylsulfonyl]-2,2-dimethyl-4-piperidyl]amino]phenyl]thiophene-2-carboxylic acid]: the DC50 in experiment [1] and in experiment [2] was 50 to 200 nM each time.
Regarding `Cn1nc(C2CCC(=O)NC2=O)c2ccc(C3CCN(C(=O)Nc4cccc(CS(=O)(=O)N5CC[C@H](Nc6cccc(-c7sc(C(=O)O)c(OCC(=O)O)c7Cl)c6)CC5(C)C)c4)CC3)cc21` (stereo partly drawn) [Example 143, 3-(carboxymethoxy)-4-chloro-5-[3-[[(4S)-1-[[3-[[4-[3-(2,6-dioxo-3-piperidyl)-1-methyl-indazol-6-yl]piperidine-1-carbonyl]amino]phenyl]methylsulfonyl]-2,2-dimethyl-4-piperidyl]amino]phenyl]thiophene-2-carboxylic acid], the 50% degradation concentration (DC50) in experiment [1] and in experiment [2] was 50 to 200 nM in each case.
On to `Cn1c(=O)n(C2CCC(=O)NC2=O)c2ccc(N3CCC(C(=O)Nc4cccc(CS(=O)(=O)N5CCC(Nc6cccc(-c7sc(C(=O)O)c(OCC(=O)O)c7Cl)c6)CC5)c4)CC3)cc21` (stereo not drawn) [Example 112, 3-(carboxymethoxy)-4-chloro-5-[3-[[1-[[3-[[1-[1-(2,6-dioxo-3-piperidyl)-3-methyl-2-oxo-benzimidazol-5-yl]piperidine-4-carbonyl]amino]phenyl]methylsulfonyl]-4-piperidyl]amino]phenyl]thiophene-2-carboxylic acid], for which the DC50 in experiment [1] and in experiment [2] was 50 to 200 nM throughout.
In the case of `CC1(C)C[C@@H](Nc2cccc(-c3sc(C(=O)O)c(OCC(=O)O)c3Cl)c2)CCN1S(=O)(=O)Cc1cccc(NC(=O)C2C[C@@H]3CN(C(=O)COc4cccc5c4CN(C4CCC(=O)NC4=O)C5=O)C[C@@H]3C2)c1` (stereo partly drawn) [Example 100], the DC50 in experiment [1] and in experiment [2] was 200 to 1000 nM in each case.
With `CC1(C)C[C@@H](Nc2cccc(-c3sc(C(=O)O)c(OCC(=O)O)c3Cl)c2)CCN1S(=O)(=O)Cc1cccc(NC(=O)C2CCN(C(=O)COc3cccc4c3CN(C3CCC(=O)NC3=O)C4=O)CC2)c1` (stereo partly drawn) [Example 63, 3-(carboxymethoxy)-4-chloro-5-(3-(((4S)-1-((3-(1-(2-((2-(2,6-dioxopiperidin-3-yl)-1-oxoisoindolin-4-yl)oxy)acetyl)piperidine-4-carboxamido)benzyl)sulfonyl)-2,2-dimethylpiperidin-4-yl)amino)phenyl)thiophene-2-carboxylic acid], the values for the 50% degradation concentration (DC50) in experiment [1] and in experiment [2] were 50 to 200 nM and 200 to 1000 nM, respectively.
